Here are results for 21 molecules from patent US9567318B2, “Substituted pyrimidine compounds and uses thereof” (Memorial Sloan-Kettering Cancer Center, priority 2009, dated 2017).

Molecules are shown by their SMILES.

Type in all cases: cell-based, human
Assay [1] concerns MDA-MB-468, SKBr3, LNCaP, MOLM-13, Kasumi-1, OCI-Ly7 and HuH7 cells. Briefly: Growth inhibition in a panel of cancer cells. The following applies: growth over 72 h. On the procedure:
Tested were MDA-MB-468 triple-negative breast cancer cells, SKBr3 HER2+breast cancer cells, LNCaP mAR+prostate cancer cells, MOLM-13 and Kasumi-1 acute myeloid leukemia cells, OCI-Ly7 diffuse large B-cell lymphoma cells and HuH7 hepatocellular carcinoma cells. […] In cancer cells, half growth inhibitory concentrations ([…]) recorded for YK5 were in high agreement with its potency to degrade Hsp90 onco-clients.
(§1) Growth Inhibition Assay. Antiproliferative effects of inhibitors were evaluated using the dye Alamar blue. This reagent offers a rapid objective measure of cell viability in cell culture, and it uses the indicator dye resazurin to measure the metabolic capacity of cells, an indicator of cell viability. Briefly, cells were plated on Costar 96-well plates. For attached cells (such as SKBr3, MDA-MB-468, LNCaP, MRCS), 8,000 cells/well were used. For suspension cells (such as MOLM-13, Kasumi-1, OCI-Ly7, PBL), 20,000 cells/well were plated. Cells were allowed to incubate for 24 h at 37° C. before drug treatment. Drugs were added in triplicates at the indicated concentrations, and the plate was incubated for 72 h. Alamar Blue (440 μM) was added, and the plate read 6 h later using the Analyst GT (Fluorescence intensity mode, excitation 530 nm, emission 580 nm, with 560=dichroic mirror). Results were analyzed using the Softmax Pro software. The percentage cell growth inhibition was calculated by comparing fluorescence readings obtained from treated versus control cells, accounting for initial cell population (time zero).

The subject of assay [2] is HER2, Raf-1, Akt, Hsp70 in SKBr3 cells. Description: Western blotting of Hsp90 onco-client proteins and Hsp70 in SKBr3 cells. On the procedure:
FIG. 3. Testing strategy for the discovery of YK5. a, b) SKBr3 cells were treated for 24 h with the indicated concentrations of inhibitors and cells were lysed for western blot (WB) analysis. β-actin was used as loading control. The data are consistent with those obtained from multiple repeat experiments (n≧3). c) The ability of the indicated inhibitors to compete with GM-Cy3B for Hsp90 binding in SKBr3 cell extracts was examined by fluorescence polarization. Values recorded in wells with added inhibitor were normalized to values read in control wells and plotted against the concentration of tested inhibitor. Drugs were assayed in triplicate. All compounds were used as DMSO stocks. Points, mean; bars, s.d. d) Growth inhibition: SKBr3 cells were incubated in triplicate with increasing concentrations of compound and growth over 72 h was assessed. Y-axis values below 0% represent cell death of the starting population. HER2 degradation was analyzed as in panel a), and gels were quantified by densitometry. Recorded values were normalized to control (vehicle only treated cells) and data graphed against YK5 concentration. Error bars represent the s.d. of the mean (n=3).
FIG. 8. […] Points, mean; bars, s.d. Yaxis values below 0% represent cell death of the starting population. c) Streptavidin beads (50 μl) were incubated with the indicated concentrations of YK55, YK56 or D-biotin to immobilize the corresponding compounds on beads. Beads (50 μl) were probed with SKBr3 cell extracts (500 μg), and the precipitated Hsp70 analyzed by western blot and quantified by […]. Results from three independent experiments were graphed to determine the relative binding affinity of YKs. Points, mean; bars, s.d. d) Structure of representative YKs. YK55 and YK56 are the biotinylated derivatives of YK54 and YK57, respectively.
FIG. 9. […] Cells were treated for 24 h with the indicated concentrations of YK149 and YK5. Cells were lysed and proteins analyzed by western blotting. b) Examples of the compounds of the present subject matter inhibit the activity of the oncogenic STAT3 in the triple-negative breast cancer cells MDA-MB-468. Cells were treated for the indicated times with compounds or vehicle and proteins analyzed by western blot. (c) Examples of the compounds of the present subject matter dose-dependently induce apoptosis in the acute myeloid leukemia cells MOLM13. Cells were treated for 24 h with the indicated concentration of compounds and the increase in caspase3,7 activity was measured and compared to only vehicle (DMSO) treated cells. Caspase-3,7 activity was a measure of compound potency in cleaving the caspase substrate Z-DEVD-R110 and releasing rhodamine. The percentage increase in apoptotic cells was calculated by comparing the fluorescence readings obtained from compounds with those obtained from vehicle (DMSO)-treated cells.
Western Blotting. Cells were grown to 60-70% confluence and treated with inhibitor or DMSO vehicle for the indicated times. Protein lysates were prepared in 50 mM Tris pH 7.4, 150 mM NaCl and 1% NP-40 lysis buffer. Protein concentrations were measured using the BCA kit (Pierce) according to the manufacturer's instructions. […]

The test system of assay [3] is Kasumi-1 acute myeloid leukemia cells. Description: Growth Inhibition Assay (Alamar blue), Kasumi-1. Conditions: Kasumi-1 cells. How it is done: (§2) The IC50 values listed for some of these compounds illustrate the antiproliferative effects of the subject compounds and were obtained using the Growth Inhibition assays described herein.
as §1

Assay [4] has as its system SKBr3 HER2+ breast cancer cells. Description: Growth Inhibition Assay (Alamar blue), SKBr3. On the procedure:
as §2, §1

`CC(C)NCCCn1c(Sc2cc3c(cc2I)OCO3)nc2c(N)ncnc21` [PU-H71, reference compound]: the “growth of all tested cancer cells” value in assay [1] is reported as “inhibited the growth of all tested cancer cells”. For the same molecule, in assay [2] (SKBr3 cells, 24 h), the “feed-back induction of Hsp70 (heat shock response)” value was “potently activated a heat shock response”.
In assay [3] (Homo sapiens, Kasumi 1, 72 h), `CCOc1nc(N2CCN(C)CC2)nc(OCC)c1Sc1nc(N)cc(NC(=O)CC)n1` [YK31, N-(6-amino-2-(4,6-diethoxy-2-(4-methylpiperazin-1-yl)pyrimidin-5-ylthio)pyrimidin-4-yl)propionamide] registered an IC50 of 34.1 µM. Also, in assay [2] (FIG. 8a, relative to YK30), the “lowering of biological activity, ethylamide versus acrylamide YK30” value is on record as 30 fold.
With `CCC(=O)Nc1ccnc(Sc2c(OC)nc(OC)nc2OC)n1` [YK77, N-(2-(2,4,6-trimethoxypyrimidin-5-ylthio)pyrimidin-4-yl)propionamide], the IC50 came to 62.3 µM in assay [3] (Homo sapiens, Kasumi 1, 72 h) and 79.2 µM in assay [4] (Homo sapiens, SK-BR-3, 72 h).
In the same order, the values of `C=CC(=O)Nc1ccnc(Sc2c(OC)nc(N3CC[N+](C)([O-])CC3)nc2OC)n1` [YK80, 4-(5-(4-acrylamidopyrimidin-2-ylthio)-4,6-dimethoxypyrimidin-2-yl)-1-methylpiperazine 1-oxide] are greater than 100 µM and 31.1 µM.
Regarding `C=CC(=O)Nc1ccnc(Sc2c(C)nc(N3CCN(C)CC3)nc2C)n1` [YK85, N-(2-(4,6-dimethyl-2-(4-methylpiperazin-1-yl)pyrimidin-5-ylthio)pyrimidin-4-yl)acrylamide], the IC50 in assay [3] (Homo sapiens, Kasumi 1, 72 h) was 4.8 µM; in assay [4] (Homo sapiens, SK-BR-3, 72 h), 1.8 µM.
The matching figures for `CCC(=O)Nc1ccnc(Sc2c(C)nc(N3CCN(C)CC3)nc2C)n1` [YK86, N-(2-(4,6-dimethyl-2-(4-methylpiperazin-1-yl)pyrimidin-5-ylthio)pyrimidin-4-yl)propionamide]: 26.2 µM and 44.4 µM.
On to `C=C(C)C(=O)Nc1ccnc(Sc2c(C)nc(N3CCN(C)CC3)nc2C)n1` [YK88, N-(2-(4,6-dimethyl-2-(4-methylpiperazin-1-yl)pyrimidin-5-ylthio)pyrimidin-4-yl)methacrylamide], for which the IC50 amounted to 13.1 µM in assay [3] (Homo sapiens, Kasumi 1, 72 h) and 16.7 µM in assay [4] (Homo sapiens, SK-BR-3, 72 h).
On to `Cc1nc(N2CCN(C)CC2)nc(C)c1Sc1nccc(NC(=O)c2ccco2)n1` [YK89, N-(2-(4,6-dimethyl-2-(4-methylpiperazin-1-yl)pyrimidin-5-ylthio)pyrimidin-4-yl)furan-2-carboxamide], for which the IC50 is 12 µM in assay [3] (Homo sapiens, Kasumi 1, 72 h); 7.5 µM in assay [3] (72 h); 6.8 µM in assay [4] (Homo sapiens, SK-BR-3, 72 h).
In the same order, the values of `Cc1nc(N2CCN(C)CC2)nc(C)c1Sc1nccc(NC(=O)C2CC2)n1` [YK90, N-(2-(4,6-dimethyl-2-(4-methylpiperazin-1-yl)pyrimidin-5-ylthio)pyrimidin-4-yl)cyclopropanecarboxamide] are 20.1 µM, 27.1 µM and 25.8 µM.
As to `CCC(=O)Nc1ccnc(Sc2c(OC)nc(N3CCCC3)nc2OC)n1` [YK106, N-(2-(4,6-dimethoxy-2-(pyrrolidin-1-yl)pyrimidin-5-ylthio)pyrimidin-4-yl)propionamide], the IC50 in assay [3] (Homo sapiens, Kasumi 1, 72 h) is greater than 100 µM; in assay [4] (Homo sapiens, SK-BR-3, 72 h), 99.5 µM.
In the same order, the values of `COc1nc(N2CCCC2)nc(OC)c1Sc1nccc(NC(=O)C2CC2)n1` [YK110, N-(2-(4,6-dimethoxy-2-(pyrrolidin-1-yl)pyrimidin-5-ylthio)pyrimidin-4-yl)cyclopropanecarboxamide] are greater than 100 µM and greater than 100 µM.
Consider `C=CC(=O)Nc1ccnc(Sc2c(C)nc(N3CCOCC3)nc2C)n1` [YK117, N-(2-(4,6-dimethyl-2-morpholinopyrimidin-5-ylthio)pyrimidin-4-yl)acrylamide], for which the IC50 in assay [3] (Homo sapiens, Kasumi 1, 72 h) came to 6.2 µM; in assay [4] (Homo sapiens, SK-BR-3, 72 h) it was 14.4 µM.
Regarding `CCC(=O)Nc1ccnc(Sc2c(C)nc(N3CCOCC3)nc2C)n1` [YK118, N-(2-(4,6-dimethyl-2-morpholinopyrimidin-5-ylthio)pyrimidin-4-yl)propionamide], the IC50 was greater than 100 µM in assay [3] (Homo sapiens, Kasumi 1, 72 h) and greater than 100 µM in assay [4] (Homo sapiens, SK-BR-3, 72 h).
For the molecule `COCC(=O)Nc1ccnc(Sc2c(C)nc(N3CCOCC3)nc2C)n1` [YK123, N-(2-(4,6-dimethyl-2-morpholinopyrimidin-5-ylthio)pyrimidin-4-yl)-2-methoxyacetamide], the IC50 in assay [3] (Homo sapiens, Kasumi 1, 72 h) is 58.1 µM; in assay [4] (Homo sapiens, SK-BR-3, 72 h) it was greater than 100 µM.
Turning to `C=CC(=O)Nc1cccc(Sc2c(OC)nc(N3CCN(C)CC3)nc2OC)c1` [YK129, N-(3-(4,6-dimethoxy-2-(4-methylpiperazin-1-yl)pyrimidin-5-ylthio)phenyl)acrylamide], the IC50 in assay [3] (Homo sapiens, Kasumi 1, 72 h) amounted to 7.7 µM; in assay [3] (72 h) it was 9.9 µM; in assay [4] (Homo sapiens, SK-BR-3, 72 h), 6.8 µM.
Regarding `C/C=C/C(=O)Nc1cccc(Sc2c(OC)nc(N3CCN(C)CC3)nc2OC)c1` [YK131, (E)-N-(3-(4,6-dimethoxy-2-(4-methylpiperazin-1-yl)pyrimidin-5-ylthio)phenyl)but-2-enamide], the IC50 was determined as 15 µM in assay [3] (Homo sapiens, Kasumi 1, 72 h) and 20.7 µM in assay [4] (Homo sapiens, SK-BR-3, 72 h).
With `C=C(C)C(=O)Nc1cccc(Sc2c(OC)nc(N3CCN(C)CC3)nc2OC)c1` [YK132, N-(3-(4,6-dimethoxy-2-(4-methylpiperazin-1-yl)pyrimidin-5-ylthio)phenyl)methacrylamideN-(3-(4,6-dimethoxy-2-(4-methylpiperazin-1-yl)pyrimidin-5-ylthio)phenyl)methacrylamide], the figures for the IC50 in assay [3] (72 h) and in assay [4] (72 h) were 7.7 µM and 17.8 µM, respectively.
On to `COc1nc(N2CCN(C)CC2)nc(OC)c1Sc1cccc(N)c1` [YK133, 3-(4,6-dimethoxy-2-(4-methylpiperazin-1-yl)pyrimidin-5-ylthio)aniline], for which the IC50 in assay [3] (Homo sapiens, Kasumi 1, 72 h) stood at 30.5 µM; in assay [3] (72 h) it was 25.4 µM; in assay [4] (Homo sapiens, SK-BR-3, 72 h), 37.3 µM.
As to `COc1nc(N2CCN(C)CC2)nc(OC)c1Sc1cccc(NC(=O)C2CC2)c1` [YK139, N-(3-(4,6-dimethoxy-2-(4-methylpiperazin-1-yl)pyrimidin-5-ylthio)phenyl)cyclopropanecarboxamide], the IC50 in assay [3] (Homo sapiens, Kasumi 1, 72 h) is 8.9 µM; in assay [3] (72 h), 7.9 µM; in assay [4] (Homo sapiens, SK-BR-3, 72 h), 7.7 µM.
Consider `CCC(=O)Nc1cccc(Sc2c(OC)nc(N)nc2OC)c1` [YK140, N-(3-(2-amino-4,6-dimethoxypyrimidin-5-ylthio)phenyl)propionamide], for which the IC50 amounted to 35.2 µM in assay [3] (Homo sapiens, Kasumi 1, 72 h) and 99.5 µM in assay [4] (Homo sapiens, SK-BR-3, 72 h).
Turning to `COc1nc(N2CCN(C)CC2)nc(OC)c1Sc1cccc(NC(=O)CN)c1` [YK149, 2-amino-N-(3-(4,6-dimethoxy-2-(4-methylpiperazin-1-yl)pyrimidin-5-ylthio)phenyl)acetamide], the IC50 in assay [3] (Homo sapiens, Kasumi 1, 72 h) came to 13.9 µM; in assay [3] (72 h), 21 µM. Moreover, the “degradation of Hsp90 onco-client proteins (HER2, Raf-1, Akt)” value in assay [2] (SKBr3 cells, 24 h, western blot) is “dose-dependently reduce the steady-state levels of HER2 and Raf-1”.
